Assays:
[1] = target: 5-hydroxytryptamine receptor 1A (Homo sapiens) (UniProt P08908); assay: Activity against 5HT1A/HU in the Eurofins SafetyScreen44 (BI) by Radioactive Assay; conditions: Compound concentration 10.0 uM
[2] = target: 5-hydroxytryptamine receptor 3A (Homo sapiens) (UniProt P46098); assay: Activity against 5HT3/HU in the Eurofins SafetyScreen44 (BI) by Others; conditions: Compound concentration 10.0 uM
Rattus norvegicus = organism: Rattus norvegicus; assay: Activity against CA+/DHPSI/RA in the Eurofins SafetyScreen44 (BI) by Radioactive Assay; conditions: Compound concentration 10.0 uM
[3] = target: D(2) dopamine receptor (Homo sapiens) (UniProt P14416); assay: Activity against D2S/HU in the Eurofins SafetyScreen44 (BI) by Radioligand Binding; conditions: Compound concentration 10.0 uM
Sequence of D(2) dopamine receptor (Homo sapiens) (P14416 whole entry): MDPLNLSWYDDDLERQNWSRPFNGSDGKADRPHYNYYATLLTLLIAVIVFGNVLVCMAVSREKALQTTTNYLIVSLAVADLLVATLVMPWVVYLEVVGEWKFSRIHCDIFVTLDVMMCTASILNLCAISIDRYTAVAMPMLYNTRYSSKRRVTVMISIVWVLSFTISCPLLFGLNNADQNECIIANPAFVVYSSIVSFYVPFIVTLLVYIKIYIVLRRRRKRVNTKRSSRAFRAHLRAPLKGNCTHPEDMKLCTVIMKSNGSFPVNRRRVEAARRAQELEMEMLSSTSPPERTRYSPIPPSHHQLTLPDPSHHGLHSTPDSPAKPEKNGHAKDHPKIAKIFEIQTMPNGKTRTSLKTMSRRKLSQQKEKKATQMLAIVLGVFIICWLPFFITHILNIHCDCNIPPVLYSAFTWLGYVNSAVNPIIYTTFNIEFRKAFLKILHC

[4] = target: Muscarinic acetylcholine receptor M2 (Homo sapiens) (UniProt P08172); assay: Activity against M2/HU in the Eurofins SafetyScreen44 (BI) by Radioactive Assay; conditions: Compound concentration 10.0 uM
Sequence of Muscarinic acetylcholine receptor M2 (Homo sapiens) (P08172 whole entry): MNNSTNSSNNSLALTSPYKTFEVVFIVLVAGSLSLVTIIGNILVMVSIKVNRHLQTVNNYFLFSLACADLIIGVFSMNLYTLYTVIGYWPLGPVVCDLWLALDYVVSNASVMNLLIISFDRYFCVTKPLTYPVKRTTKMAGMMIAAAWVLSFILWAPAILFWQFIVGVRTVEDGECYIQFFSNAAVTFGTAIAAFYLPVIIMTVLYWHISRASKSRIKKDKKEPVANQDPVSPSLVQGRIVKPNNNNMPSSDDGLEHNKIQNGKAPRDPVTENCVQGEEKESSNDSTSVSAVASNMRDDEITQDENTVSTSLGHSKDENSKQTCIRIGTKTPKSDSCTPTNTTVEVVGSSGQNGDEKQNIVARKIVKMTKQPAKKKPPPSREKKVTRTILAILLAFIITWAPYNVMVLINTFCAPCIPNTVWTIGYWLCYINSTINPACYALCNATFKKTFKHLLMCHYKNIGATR

[5] = target: Sodium-dependent noradrenaline transporter (Homo sapiens) (UniProt P23975); assay: Activity against NETRANS/H in the Eurofins SafetyScreen44 (BI) by Radioactive Assay; conditions: Compound concentration 10.0 uM
Sequence of Sodium-dependent noradrenaline transporter (Homo sapiens) (P23975 whole entry): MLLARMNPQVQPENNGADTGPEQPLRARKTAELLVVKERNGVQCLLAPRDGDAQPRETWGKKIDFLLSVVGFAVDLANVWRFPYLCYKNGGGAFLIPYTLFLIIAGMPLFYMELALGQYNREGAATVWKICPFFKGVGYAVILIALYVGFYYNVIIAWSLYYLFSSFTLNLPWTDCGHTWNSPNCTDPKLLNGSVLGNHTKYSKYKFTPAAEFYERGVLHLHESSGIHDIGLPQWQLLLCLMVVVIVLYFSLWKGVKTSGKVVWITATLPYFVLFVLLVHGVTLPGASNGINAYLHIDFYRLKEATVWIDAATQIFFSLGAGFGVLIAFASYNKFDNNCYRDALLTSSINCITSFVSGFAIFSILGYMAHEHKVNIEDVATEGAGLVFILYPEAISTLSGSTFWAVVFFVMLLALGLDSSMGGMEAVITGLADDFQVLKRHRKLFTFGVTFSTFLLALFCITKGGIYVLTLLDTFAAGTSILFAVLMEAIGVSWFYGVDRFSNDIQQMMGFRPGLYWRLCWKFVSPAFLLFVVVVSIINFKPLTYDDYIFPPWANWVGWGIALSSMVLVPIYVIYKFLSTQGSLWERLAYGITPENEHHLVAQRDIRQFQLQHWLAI

[6] = target: Substance-P receptor (Homo sapiens) (UniProt P25103); assay: Activity against NK1/HU in the Eurofins SafetyScreen44 (BI) by Radioactive Assay; conditions: Compound concentration 10.0 uM
Sequence of Substance-P receptor (Homo sapiens) (P25103 whole entry): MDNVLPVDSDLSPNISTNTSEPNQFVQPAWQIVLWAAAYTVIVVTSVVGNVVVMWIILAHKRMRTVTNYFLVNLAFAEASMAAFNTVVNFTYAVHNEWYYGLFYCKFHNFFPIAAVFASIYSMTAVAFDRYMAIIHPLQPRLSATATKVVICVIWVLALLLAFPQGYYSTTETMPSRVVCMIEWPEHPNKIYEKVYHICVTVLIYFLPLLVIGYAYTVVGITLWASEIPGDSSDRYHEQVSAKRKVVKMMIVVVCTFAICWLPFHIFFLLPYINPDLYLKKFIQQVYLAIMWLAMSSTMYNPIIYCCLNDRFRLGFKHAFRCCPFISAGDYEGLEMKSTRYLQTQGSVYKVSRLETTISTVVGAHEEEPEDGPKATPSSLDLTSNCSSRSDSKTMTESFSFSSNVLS

[7] = target: Sigma intracellular receptor 2 (Rattus norvegicus) (UniProt Q5U3Y7); assay: Activity against SIGMA2/R in the Eurofins SafetyScreen44 (BI) by Radioactive Assay; conditions: Compound concentration 10.0 uM
Sequence of Sigma intracellular receptor 2 (Rattus norvegicus) (Q5U3Y7 whole entry): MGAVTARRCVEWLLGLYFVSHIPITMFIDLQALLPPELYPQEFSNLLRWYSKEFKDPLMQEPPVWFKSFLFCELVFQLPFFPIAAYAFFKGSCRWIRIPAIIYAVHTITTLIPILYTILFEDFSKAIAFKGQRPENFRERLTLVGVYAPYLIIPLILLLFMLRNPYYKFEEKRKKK

[8] = Activity against I2/CENTR/R in the Eurofins SafetyScreen44 (BI) by Radioactive Assay; conditions: Rattus norvegicus; Compound concentration 10.0 uM

Measured: residual activity

Sequence of 5-hydroxytryptamine receptor 1A (Homo sapiens) (P08908 whole entry): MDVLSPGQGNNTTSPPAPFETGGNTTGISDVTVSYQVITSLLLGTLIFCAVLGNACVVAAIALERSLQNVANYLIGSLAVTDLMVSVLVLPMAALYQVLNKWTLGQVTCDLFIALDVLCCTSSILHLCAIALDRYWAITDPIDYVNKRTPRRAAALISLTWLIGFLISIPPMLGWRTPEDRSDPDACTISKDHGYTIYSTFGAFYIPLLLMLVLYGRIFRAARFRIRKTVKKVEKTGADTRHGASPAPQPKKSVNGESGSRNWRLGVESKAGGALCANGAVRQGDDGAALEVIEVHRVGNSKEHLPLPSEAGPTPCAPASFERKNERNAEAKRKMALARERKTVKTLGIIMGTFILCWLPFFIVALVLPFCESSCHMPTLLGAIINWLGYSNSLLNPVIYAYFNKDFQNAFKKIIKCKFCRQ
Sequence of 5-hydroxytryptamine receptor 3A (Homo sapiens) (P46098 whole entry): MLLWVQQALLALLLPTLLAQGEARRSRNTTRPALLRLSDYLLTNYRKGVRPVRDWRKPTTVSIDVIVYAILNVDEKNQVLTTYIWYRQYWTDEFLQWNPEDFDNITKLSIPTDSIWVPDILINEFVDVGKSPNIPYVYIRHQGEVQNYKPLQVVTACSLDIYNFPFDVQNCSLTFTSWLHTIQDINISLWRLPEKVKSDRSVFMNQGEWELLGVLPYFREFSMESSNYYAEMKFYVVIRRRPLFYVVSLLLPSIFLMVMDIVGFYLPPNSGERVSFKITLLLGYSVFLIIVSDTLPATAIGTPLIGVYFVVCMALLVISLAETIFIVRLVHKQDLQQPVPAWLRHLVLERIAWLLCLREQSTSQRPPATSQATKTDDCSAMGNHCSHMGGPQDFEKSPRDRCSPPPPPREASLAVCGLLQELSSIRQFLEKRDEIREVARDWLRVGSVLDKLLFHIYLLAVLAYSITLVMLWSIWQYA

COc1cc(C)c(S(=O)(=O)N(C)CCOCC(=O)N(C)[C@H]2CCC[C@@H](N3CCN(C)CC3)C2)c(C)c1
active: [7] 45%
inactive: [1] 99% | [2] 91% | Rattus norvegicus 94% | [3] 105% | [4] 61% | [5] 114% | [6] 109% | [8] 60%
